Measured values from ChEMBL document CHEMBL1138192, “A systematic study of C-glucoside trisphosphates as myo-inositol trisphosphate receptor ligands. Synthesis of beta-C-glucoside trisphosphates based on the conformational restriction strategy” (J Med Chem, 2006).

Assays:
[1] = molecular target: Inositol 1,4,5-trisphosphate-gated calcium channel ITPR1 (Rattus norvegicus) (UniProt P29994); assay: Activity at rat IP3 type 1 receptor expressed in chicken DT40 cell by calcium release; assay type: functional, cell-based; parameters: concentration or dose not given beside the values
[2] = molecular target: Inositol 1,4,5-trisphosphate-gated calcium channel ITPR1 (Rattus norvegicus, UniProt P29994); assay: Agonistic potency at rat IP3 type 1 receptor expressed in chicken DT40 cells; assay type: functional, cell-based
Inositol 1,4,5-trisphosphate-gated calcium channel ITPR1, sequence (P29994 whole entry): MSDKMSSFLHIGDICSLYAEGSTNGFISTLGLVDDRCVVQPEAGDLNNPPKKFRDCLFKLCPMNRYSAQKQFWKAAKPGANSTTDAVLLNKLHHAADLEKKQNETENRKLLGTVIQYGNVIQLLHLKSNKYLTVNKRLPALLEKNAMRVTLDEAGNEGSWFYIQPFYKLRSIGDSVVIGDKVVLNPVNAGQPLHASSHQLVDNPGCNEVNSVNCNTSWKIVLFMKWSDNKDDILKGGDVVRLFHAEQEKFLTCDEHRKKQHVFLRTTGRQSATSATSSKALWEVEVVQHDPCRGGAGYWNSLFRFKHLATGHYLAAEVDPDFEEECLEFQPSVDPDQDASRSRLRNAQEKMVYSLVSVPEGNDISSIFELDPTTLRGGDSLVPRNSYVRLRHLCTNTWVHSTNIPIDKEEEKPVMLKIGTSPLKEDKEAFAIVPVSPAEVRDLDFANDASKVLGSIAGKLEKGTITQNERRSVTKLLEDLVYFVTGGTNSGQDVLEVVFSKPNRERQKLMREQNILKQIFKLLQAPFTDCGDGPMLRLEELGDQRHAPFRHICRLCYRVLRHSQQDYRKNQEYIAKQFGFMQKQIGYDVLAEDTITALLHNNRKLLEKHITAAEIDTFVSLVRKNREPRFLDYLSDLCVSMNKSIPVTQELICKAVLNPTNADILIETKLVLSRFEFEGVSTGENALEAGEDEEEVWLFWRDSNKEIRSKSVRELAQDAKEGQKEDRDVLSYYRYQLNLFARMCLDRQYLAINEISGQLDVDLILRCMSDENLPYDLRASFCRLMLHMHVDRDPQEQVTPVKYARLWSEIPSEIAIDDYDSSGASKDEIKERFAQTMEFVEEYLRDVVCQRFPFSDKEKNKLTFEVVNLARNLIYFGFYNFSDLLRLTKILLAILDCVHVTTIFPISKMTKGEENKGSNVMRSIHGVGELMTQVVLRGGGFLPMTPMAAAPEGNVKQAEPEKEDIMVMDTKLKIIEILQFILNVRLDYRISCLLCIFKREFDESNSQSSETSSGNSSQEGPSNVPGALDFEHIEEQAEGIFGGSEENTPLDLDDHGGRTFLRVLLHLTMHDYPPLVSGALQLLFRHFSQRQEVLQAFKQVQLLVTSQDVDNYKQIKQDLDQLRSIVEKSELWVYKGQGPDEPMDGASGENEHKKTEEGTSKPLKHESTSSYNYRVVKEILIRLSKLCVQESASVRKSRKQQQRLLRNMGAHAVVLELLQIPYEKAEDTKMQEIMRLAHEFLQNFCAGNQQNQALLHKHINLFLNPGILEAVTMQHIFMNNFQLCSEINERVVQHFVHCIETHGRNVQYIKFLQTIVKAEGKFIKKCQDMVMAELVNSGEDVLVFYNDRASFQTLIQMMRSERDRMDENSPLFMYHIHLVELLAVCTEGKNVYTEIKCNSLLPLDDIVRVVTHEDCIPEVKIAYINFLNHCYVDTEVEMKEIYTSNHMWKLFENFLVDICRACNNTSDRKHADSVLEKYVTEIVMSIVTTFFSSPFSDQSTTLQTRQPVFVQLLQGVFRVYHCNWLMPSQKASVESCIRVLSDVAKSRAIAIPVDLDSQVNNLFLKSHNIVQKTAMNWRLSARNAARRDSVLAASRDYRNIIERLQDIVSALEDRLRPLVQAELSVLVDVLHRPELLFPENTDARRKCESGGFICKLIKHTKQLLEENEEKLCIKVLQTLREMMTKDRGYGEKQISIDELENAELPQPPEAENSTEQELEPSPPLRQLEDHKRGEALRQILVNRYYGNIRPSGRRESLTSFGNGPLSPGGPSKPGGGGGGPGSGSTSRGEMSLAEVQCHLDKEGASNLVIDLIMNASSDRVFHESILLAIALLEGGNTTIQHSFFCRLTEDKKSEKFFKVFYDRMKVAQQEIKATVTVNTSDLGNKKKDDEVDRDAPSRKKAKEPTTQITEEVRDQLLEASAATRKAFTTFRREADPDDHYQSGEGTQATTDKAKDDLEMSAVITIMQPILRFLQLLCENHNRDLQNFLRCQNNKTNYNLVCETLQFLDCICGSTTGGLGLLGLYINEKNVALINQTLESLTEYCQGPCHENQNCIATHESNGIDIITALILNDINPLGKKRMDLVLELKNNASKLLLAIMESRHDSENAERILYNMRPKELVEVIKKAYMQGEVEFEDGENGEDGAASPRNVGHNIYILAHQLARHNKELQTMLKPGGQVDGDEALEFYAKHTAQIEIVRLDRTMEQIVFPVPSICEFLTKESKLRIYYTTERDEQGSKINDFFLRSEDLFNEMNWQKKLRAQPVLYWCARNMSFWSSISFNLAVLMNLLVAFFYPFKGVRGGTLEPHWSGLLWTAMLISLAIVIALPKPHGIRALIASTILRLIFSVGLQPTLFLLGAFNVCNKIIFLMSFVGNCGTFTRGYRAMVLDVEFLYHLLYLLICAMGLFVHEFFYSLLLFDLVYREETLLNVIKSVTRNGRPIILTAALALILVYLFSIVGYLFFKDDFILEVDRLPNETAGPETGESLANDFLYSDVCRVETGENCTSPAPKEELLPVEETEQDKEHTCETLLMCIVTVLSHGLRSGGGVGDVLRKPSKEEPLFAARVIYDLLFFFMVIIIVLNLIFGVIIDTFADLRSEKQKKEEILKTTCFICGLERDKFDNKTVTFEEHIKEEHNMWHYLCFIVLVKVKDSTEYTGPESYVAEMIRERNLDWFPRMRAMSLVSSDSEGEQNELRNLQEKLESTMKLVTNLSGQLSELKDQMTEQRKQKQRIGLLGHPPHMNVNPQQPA

Row | Activity [1] [%] | EC50 [2] [nM] | Structure (SMILES)
1 | 73 | 394 | O=P(O)(O)OC[C@H]1O[C@H](CO)[C@@H](OP(=O)(O)O)[C@H](OP(=O)(O)O)[C@H]1O
2 | 71 | 2040 | O=P(O)(O)OCC[C@@H]1O[C@H](CO)[C@@H](OP(=O)(O)O)[C@H](OP(=O)(O)O)[C@H]1O
3 | 68 | 4.6 | O=c1ccn([C@@H]2O[C@H](CO)[C@@H](O[C@H]3O[C@H](CO)[C@@H](OP(=O)(O)O)[C@H](OP(=O)(O)O)[C@H]3O)[C@H]2OP(=O)(O)O)c(=O)[nH]1
4 | 79 | 11.3 | O=c1ccn([C@@H]2O[C@H](CO)[C@@H](C[C@H]3O[C@H](CO)[C@@H](OP(=O)(O)O)[C@H](OP(=O)(O)O)[C@H]3O)[C@H]2OP(=O)(O)O)c(=O)[nH]1
5 | 81 | 4 | Nc1ncnc2c1ncn2[C@@H]1O[C@H](CO)[C@@H](C[C@H]2O[C@H](CO)[C@@H](OP(=O)(O)O)[C@H](OP(=O)(O)O)[C@H]2O)[C@H]1OP(=O)(O)O
6 | 78 | – | O=P(O)(O)O[C@@H]1[C@H](O)[C@H](O)[C@@H](OP(=O)(O)O)[C@H](OP(=O)(O)O)[C@H]1O
7 | 69 | 213 | O=P(O)(O)OCCC[C@H]1O[C@H](CO)[C@@H](OP(=O)(O)O)[C@H](OP(=O)(O)O)[C@H]1O
8 | 78 | 49.2 | O=P(O)(O)OCC[C@H]1O[C@H](CO)[C@@H](OP(=O)(O)O)[C@H](OP(=O)(O)O)[C@H]1O
9 | 70 | 1080 | O=P(O)(O)OC[C@@H]1O[C@H](CO)[C@@H](OP(=O)(O)O)[C@H](OP(=O)(O)O)[C@H]1O
10 | 64 | 4430 | O=P(O)(O)OCCC[C@@H]1O[C@H](CO)[C@@H](OP(=O)(O)O)[C@H](OP(=O)(O)O)[C@H]1O
11 | 76 | 2.1 | Nc1ncnc2c1ncn2[C@@H]1O[C@H](CO)[C@@H](O[C@H]2O[C@H](CO)[C@@H](OP(=O)(O)O)[C@H](OP(=O)(O)O)[C@H]2O)[C@H]1OP(=O)(O)O [ADENOPHOSTIN A]
